Test results: the supplement of paper PMC11451515

Assays:
Details in all cases: 48 h
P12-Ichikawa [1] = assay: AUC of viability dose-response curve (% viability x log10 dose units); higher = less sensitive
Procedure, shortened: (§1)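 Leukemia cells adapted to each medium were seeded in 1536-well plates (500 or 1000 cells/well) and given library compounds in DMSO for 48 h at 37°C. The 11 threefold doses spanned 47 μM to 0.79 nM, and CellTiter-Glo One luminescence was normalised per plate to DMSO and cell-free wells before four-parameter log-logistic fitting on log10 dose. Area under the curve was integrated with the trapezoidal rule, scaling curves above full viability and removing curves that failed quality control.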

NOMO1 [2] = assay: as above
Procedure, shortened: as §1

SEM cells [3] = assay: as above
Procedure, shortened: as §1

P12-Ichikawa [4] = assay: cell viability relative to DMSO control; higher = less cytotoxic
Procedure, shortened: (§2)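 Viability is expressed as a percentage of DMSO wells within each plate, and cell-free wells serve as background. Seeding densities in the 1536-well plates (5 μl) were 500 cells/well for NOMO1 or SEM leukemia cells and 1000 cells/well for P12-Ichikawa. Each line was adapted for at least four passages in each medium. Library compounds in DMSO were pin-dosed at 47 μM to 0.79 nM (11 points, threefold), and CellTiter-Glo One luminescence was read after 48 h at 37°C.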

NOMO1 [5] = assay: as above
Procedure, shortened: as §2

SEM cells [6] = assay: as above
Procedure, shortened: as §2

CO[C@@H](C(=O)N1Cc2[nH]nc(NC(=O)c3ccc(N4CCN(C)CC4)cc3)c2C1)c1ccccc1
AUC of viability dose-response curve
Details	NOMO1 [2]	P12-Ichikawa [1]	SEM cells [3]
HPLM + 10% dialyzed FBS	352	268	277
RPMI 5 mM glucose + 10% FBS	319	260	247
RPMI 5 mM glucose + 10% dialyzed FBS	319	300	248

cell viability [%]
Details	NOMO1 [5]	P12-Ichikawa [4]	SEM cells [6]
HPLM + 10% dialyzed FBS, 0.000781 µM	88	89.1	95.5
HPLM + 10% dialyzed FBS, 0.00234 µM	93.2	93.6	84.2
HPLM + 10% dialyzed FBS, 0.00702 µM	102	93	103
HPLM + 10% dialyzed FBS, 0.0211 µM	94.2	95.9	90.9
HPLM + 10% dialyzed FBS, 0.0632 µM	72.2	80	71.1
HPLM + 10% dialyzed FBS, 0.19 µM	62.2	35.4	55.6
HPLM + 10% dialyzed FBS, 0.569 µM	58.6	15	38.4
HPLM + 10% dialyzed FBS, 1.71 µM	53.3	20.3	24.6
HPLM + 10% dialyzed FBS, 5.12 µM	54.1	23.2	28.3
HPLM + 10% dialyzed FBS, 15.4 µM	66.8	25	24.3
HPLM + 10% dialyzed FBS, 46.1 µM	71.7	50.8	24.9
RPMI 5 mM glucose + 10% FBS, 0.000781 µM	80.4	90	107
RPMI 5 mM glucose + 10% FBS, 0.00234 µM	79.4	87.3	92.3
RPMI 5 mM glucose + 10% FBS, 0.00702 µM	79.7	84.9	103
RPMI 5 mM glucose + 10% FBS, 0.0211 µM	83.2	89	94.6
RPMI 5 mM glucose + 10% FBS, 0.0632 µM	81.5	75.9	59.3
RPMI 5 mM glucose + 10% FBS, 0.19 µM	64.4	30.3	38.9
RPMI 5 mM glucose + 10% FBS, 0.569 µM	51.5	19.9	23.5
RPMI 5 mM glucose + 10% FBS, 1.71 µM	50.9	28.9	20.5
RPMI 5 mM glucose + 10% FBS, 5.12 µM	55.8	28.3	19.7
RPMI 5 mM glucose + 10% FBS, 15.4 µM	53.4	26.1	15
RPMI 5 mM glucose + 10% FBS, 46.1 µM	56.3	42.3	18.7
RPMI 5 mM glucose + 10% dialyzed FBS, 0.000781 µM	83.7	87.1	87.9
RPMI 5 mM glucose + 10% dialyzed FBS, 0.00234 µM	87.2	95.8	97.1
RPMI 5 mM glucose + 10% dialyzed FBS, 0.00702 µM	88.5	95.9	87.4
RPMI 5 mM glucose + 10% dialyzed FBS, 0.0211 µM	88.7	95.5	90.7
RPMI 5 mM glucose + 10% dialyzed FBS, 0.0632 µM	71.9	82.8	59.8
RPMI 5 mM glucose + 10% dialyzed FBS, 0.19 µM	52.5	34.5	39.5
RPMI 5 mM glucose + 10% dialyzed FBS, 0.569 µM	59.3	28.4	32.2
RPMI 5 mM glucose + 10% dialyzed FBS, 1.71 µM	47.4	37.9	20.2
RPMI 5 mM glucose + 10% dialyzed FBS, 5.12 µM	48.9	39.4	25.1
RPMI 5 mM glucose + 10% dialyzed FBS, 15.4 µM	55.3	42.8	20
RPMI 5 mM glucose + 10% dialyzed FBS, 46.1 µM	54.3	54.8	16.4

CC(=O)N(C)C1(c2ccccc2)CCN(CCC[C@]2(c3ccc(Cl)c(Cl)c3)CCCN(C(=O)c3ccccc3)C2)CC1
AUC of viability dose-response curve
Details	NOMO1 [2]	P12-Ichikawa [1]	SEM cells [3]
HPLM + 10% dialyzed FBS	294	346	305
RPMI 5 mM glucose + 10% FBS	344	387	303
RPMI 5 mM glucose + 10% dialyzed FBS	343	366	326

cell viability [%]
Details	NOMO1 [5]	P12-Ichikawa [4]	SEM cells [6]
HPLM + 10% dialyzed FBS, 0.000781 µM	116	115	120
HPLM + 10% dialyzed FBS, 0.00234 µM	124	114	129
HPLM + 10% dialyzed FBS, 0.00702 µM	128	115	124
HPLM + 10% dialyzed FBS, 0.0211 µM	117	116	116
HPLM + 10% dialyzed FBS, 0.0632 µM	123	114	123
HPLM + 10% dialyzed FBS, 0.19 µM	104	108	120
HPLM + 10% dialyzed FBS, 0.569 µM	58.4	91.1	74.1
HPLM + 10% dialyzed FBS, 1.71 µM	25.1	54.9	14.2
HPLM + 10% dialyzed FBS, 5.12 µM	9.73	45.1	11.2
HPLM + 10% dialyzed FBS, 15.4 µM	10	33.9	9.08
HPLM + 10% dialyzed FBS, 46.1 µM	4.11	7.84	7.03
RPMI 5 mM glucose + 10% FBS, 0.000781 µM	106	110	109
RPMI 5 mM glucose + 10% FBS, 0.00234 µM	109	110	130
RPMI 5 mM glucose + 10% FBS, 0.00702 µM	122	110	103
RPMI 5 mM glucose + 10% FBS, 0.0211 µM	126	107	126
RPMI 5 mM glucose + 10% FBS, 0.0632 µM	128	114	123
RPMI 5 mM glucose + 10% FBS, 0.19 µM	122	119	123
RPMI 5 mM glucose + 10% FBS, 0.569 µM	111	111	78.7
RPMI 5 mM glucose + 10% FBS, 1.71 µM	65.5	88.4	9.2
RPMI 5 mM glucose + 10% FBS, 5.12 µM	15.3	55.8	6.49
RPMI 5 mM glucose + 10% FBS, 15.4 µM	8.99	41.1	6.83
RPMI 5 mM glucose + 10% FBS, 46.1 µM	5.76	12.1	4.78
RPMI 5 mM glucose + 10% dialyzed FBS, 0.000781 µM	110	110	109
RPMI 5 mM glucose + 10% dialyzed FBS, 0.00234 µM	112	107	145
RPMI 5 mM glucose + 10% dialyzed FBS, 0.00702 µM	114	110	119
RPMI 5 mM glucose + 10% dialyzed FBS, 0.0211 µM	115	112	128
RPMI 5 mM glucose + 10% dialyzed FBS, 0.0632 µM	106	117	139
RPMI 5 mM glucose + 10% dialyzed FBS, 0.19 µM	115	108	128
RPMI 5 mM glucose + 10% dialyzed FBS, 0.569 µM	100	99.8	133
RPMI 5 mM glucose + 10% dialyzed FBS, 1.71 µM	60.3	79.9	18.4
RPMI 5 mM glucose + 10% dialyzed FBS, 5.12 µM	16.9	38.9	12
RPMI 5 mM glucose + 10% dialyzed FBS, 15.4 µM	10.3	18.5	10.6
RPMI 5 mM glucose + 10% dialyzed FBS, 46.1 µM	5.1	11.2	6.46

CC(C)(N)C(=O)N[C@H](COCc1ccccc1)C(=O)N1CCC2(CC1)CN([S+](C)(=O)[O-])c1ccccc12
AUC of viability dose-response curve
Details	NOMO1 [2]	P12-Ichikawa [1]	SEM cells [3]
HPLM + 10% dialyzed FBS	402	445	448
RPMI 5 mM glucose + 10% FBS	460	440	437
RPMI 5 mM glucose + 10% dialyzed FBS	446	438	419

cell viability [%]
Details	NOMO1 [5]	P12-Ichikawa [4]	SEM cells [6]
RPMI 5 mM glucose + 10% FBS, 0.000781 µM	117	–	124
RPMI 5 mM glucose + 10% FBS, 0.00234 µM	122	–	127
RPMI 5 mM glucose + 10% FBS, 0.00702 µM	132	–	122
RPMI 5 mM glucose + 10% FBS, 0.0211 µM	124	–	155
RPMI 5 mM glucose + 10% FBS, 0.0632 µM	123	–	130
RPMI 5 mM glucose + 10% FBS, 0.19 µM	123	–	130
RPMI 5 mM glucose + 10% FBS, 0.569 µM	122	–	139
RPMI 5 mM glucose + 10% FBS, 1.71 µM	115	–	121
RPMI 5 mM glucose + 10% FBS, 5.12 µM	113	–	114
RPMI 5 mM glucose + 10% FBS, 15.4 µM	109	–	91.9
RPMI 5 mM glucose + 10% FBS, 46.1 µM	110	–	36.8
RPMI 5 mM glucose + 10% dialyzed FBS, 0.000781 µM	–	124	–
RPMI 5 mM glucose + 10% dialyzed FBS, 0.00234 µM	–	122	–
RPMI 5 mM glucose + 10% dialyzed FBS, 0.00702 µM	–	141	–
RPMI 5 mM glucose + 10% dialyzed FBS, 0.0211 µM	–	126	–
RPMI 5 mM glucose + 10% dialyzed FBS, 0.0632 µM	–	125	–
RPMI 5 mM glucose + 10% dialyzed FBS, 0.19 µM	–	124	–
RPMI 5 mM glucose + 10% dialyzed FBS, 0.569 µM	–	123	–
RPMI 5 mM glucose + 10% dialyzed FBS, 1.71 µM	–	114	–
RPMI 5 mM glucose + 10% dialyzed FBS, 5.12 µM	–	109	–
RPMI 5 mM glucose + 10% dialyzed FBS, 15.4 µM	–	91.8	–
RPMI 5 mM glucose + 10% dialyzed FBS, 46.1 µM	–	20.3	–
